Experimental data published in ChEMBL document CHEMBL5244247, “Natural and synthetic coumarins as antileishmanial agents: A review” (Eur J Med Chem, 2020).
≈ marks a conversion by molar mass, not a printed value. Where “and” joins values, the source holds several entries; their conditions need not be identical. Equal entries are not always repeated.

Tests used:
[1] = tested on: Leishmania amazonensis; assay: Antileishmanial activity against amastigote form of Leishmania amazonensis assessed as parasite growth inhibition incubated for 72 hrs by regression analysis; assay type: functional, organism-based
[2] = Selectivity index, ratio of CC50 for cytotoxicity against mouse J774G8 cells to IC50 for antileishmanial activity against intracellular Leishmania amazonensis MHOM/BR/75/Josefa amastigotes infected in BALB/c mouse peritoneal macrophages; assay type: toxicity, cell-based; conditions: read-out: Ratio CC50/IC50
[3] = tested on: Leishmania amazonensis; assay: Antileishmanial activity against intracellular Leishmania amazonensis MHOM/BR/75/Josefa amastigotes infected in BALB/c mouse peritoneal macrophages assessed as parasite growth inhibition incubated for 24 hrs by regression analysis; assay type: functional, organism-based; conditions: Peritoneal macrophage
[4] = tested on: Leishmania braziliensis; assay: Antileishmanial activity against amastigote form of Leishmania braziliensis; assay type: functional
[5] = tested on: Leishmania braziliensis; assay: Antileishmanial activity against promastigote form of Leishmania braziliensis; assay type: functional, organism-based; conditions: for IC50: Leishmania braziliensis
[6] = tested on: Leishmania amazonensis; assay: Antileishmanial activity against promastigote form of Leishmania amazonensis assessed as parasite growth inhibition incubated for 72 hrs by regression analysis; assay type: functional, organism-based
[7] = tested on: Leishmania amazonensis; assay: Antileishmanial activity against amastigote form of Leishmania amazonensis assessed as parasite growth inhibition; assay type: functional, organism-based
[8] = tested on: Leishmania amazonensis; assay: Antileishmanial activity against promastigote form of Leishmania amazonensis assessed as parasite growth inhibition incubated for 72 hrs by neubauer counting chamber analysis; assay type: functional, organism-based
[9] = tested on: Leishmania major; assay: Antileishmanial activity against promastigote form of Leishmania major assessed as inhibition of parasite growth by MTT colorimetric cell viability assay; assay type: functional, organism-based
[10] = tested on: Leishmania major; assay: Antileishmanial activity against promastigote form of Leishmania major assessed as inhibition incubated for 72 hrs by MTT assay; assay type: functional, organism-based
[11] = tested on: Leishmania major; assay: Antileishmanial activity against promastigote form of Leishmania major assessed as inhibition at 100 uM incubated for 72 hrs by MTT assay relative to control; assay type: functional
[12] = tested on: Leishmania panamensis; assay: Antileishmanial activity against intracellular Leishmania panamensis amastigotes infected in human U-937 cells assessed as inhibition incubated for 72 hrs by flow cytometry; assay type: functional, organism-based; conditions: U-937, 72 h
[13] = tested on: Leishmania panamensis; assay: Antileishmanial activity against intracellular Leishmania panamensis amastigotes infected in human U-937 cells assessed as inhibition at 20 ug/mL incubated for 72 hrs by flow cytometry relative to control; assay type: functional
[14] = tested on: Leishmania donovani; assay: Antileishmanial activity against amastigote form of Leishmania donovani at 50 uM assessed as inhibition of parasite growth relative to control; assay type: functional
[15] = tested on: Leishmania amazonensis; assay: Antileishmanial activity against promastigote form of Leishmania amazonensis assessed as inhibition of parasite growth at 100 uM incubated for 72 hrs by neubauer counting chamber analysis relative to control; assay type: functional
[16] = tested on: Leishmania amazonensis; assay: Antileishmanial activity against promastigote form of Leishmania amazonensis; assay type: functional, organism-based
[17] = tested on: Leishmania infantum; assay: Antileishmanial activity against promastigote form of Leishmania infantum; assay type: functional, organism-based
[18] = tested on: Leishmania chagasi; assay: Antileishmanial activity against promastigote form of Leishmania chagasi; assay type: functional, organism-based
[19] = biological target: Acetylcholinesterase (Homo sapiens) (UniProt P22303); assay: Inhibition of AChE (unknown origin) assessed as inhibition zone by Ellman's colorimetric method
[20] = tested on: Leishmania major; assay: Antileishmanial activity against promastigote form of Leishmania major; assay type: functional, organism-based
[21] = tested on: Leishmania donovani; assay: Antileishmanial activity against promastigote form of Leishmania donovani; assay type: functional, organism-based
[22] = tested on: Leishmania mexicana; assay: Antileishmanial activity against promastigote form of Leishmania mexicana; assay type: functional, organism-based
[23] = tested on: Leishmania donovani; assay: Antileishmanial activity against amastigote form of Leishmania donovani; assay type: functional, organism-based
[24] = tested on: THP-1; assay: Cytotoxicity against human THP-1 cells assessed as inhibition incubated for 24 hrs by flow cytometry assay; assay type: functional, cell-based; conditions: THP-1, 24 h
[25] = tested on: Leishmania infantum; assay: Antileishmanial activity against axenic amastigote stage of Leishmania infantum infected in human THP-1 cells assessed as inhibition of parasite growth incubated for 24 hrs by flow cytometry assay; assay type: functional, organism-based; conditions: THP-1, 24 h
[26] = Selectivity index, ratio of IC50 for cytotoxicity against human THP-1 cells to IC50 for antileishmanial activity against axenic amastigote stage of Leishmania infantum infected in human THP-1 cells; assay type: toxicity, cell-based; conditions: read-out: Selectivity Index
[27] = tested on: Leishmania major; assay: Antileishmanial activity against promastigote form of Leishmania major assessed as inhibition incubated for 48 hrs by MTT assay; assay type: functional, organism-based
[28] = tested on: Leishmania major; assay: Antileishmanial activity against promastigote form of Leishmania major assessed as inhibition at 0.1 uM incubated for 72 hrs by MTT assay relative to control; assay type: functional
[29] = tested on: Leishmania amazonensis; assay: Antileishmanial activity against Leishmania amazonensis infected in BALB/c mouse assessed as reduction in parasite load at 10 mg/kg, sc administered for 14 days relative to control; assay type: functional; design: scale not given: the % may be the effect or the level left; conditions: time 14 day

Acetylcholinesterase (Homo sapiens), sequence (P22303 whole entry): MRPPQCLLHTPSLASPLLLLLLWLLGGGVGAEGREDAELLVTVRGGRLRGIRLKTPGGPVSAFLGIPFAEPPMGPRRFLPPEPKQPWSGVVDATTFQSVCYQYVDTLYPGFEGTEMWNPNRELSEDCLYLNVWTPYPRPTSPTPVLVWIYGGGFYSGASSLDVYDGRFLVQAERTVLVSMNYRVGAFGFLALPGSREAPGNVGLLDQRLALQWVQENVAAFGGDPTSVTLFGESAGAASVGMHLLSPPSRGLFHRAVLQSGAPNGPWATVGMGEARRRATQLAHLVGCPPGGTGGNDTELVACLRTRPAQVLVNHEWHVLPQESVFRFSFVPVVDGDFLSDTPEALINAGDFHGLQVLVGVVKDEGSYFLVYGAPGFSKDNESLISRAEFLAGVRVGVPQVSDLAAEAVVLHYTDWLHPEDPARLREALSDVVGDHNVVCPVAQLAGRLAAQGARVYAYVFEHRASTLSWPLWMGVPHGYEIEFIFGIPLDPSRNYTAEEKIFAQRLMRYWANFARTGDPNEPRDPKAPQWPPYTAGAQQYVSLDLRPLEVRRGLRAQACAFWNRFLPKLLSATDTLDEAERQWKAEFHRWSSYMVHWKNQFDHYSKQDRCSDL

CCC(C)C(=O)c1c(O)c(CC=C(C)C)c(O)c2c(-c3ccccc3)cc(=O)oc12 (stereo not drawn)
IC50 [1]: 0.88 mg/L (≈ 2.16 µM)
selectivity ratio [2]: 4.4
IC50 [3]: 14.3 µM
LD50 [4]: 22 µg/mL
LC50 ([4]; Leishmania braziliensis, read-out: LD50 (the source's name)): 29 mg/L (≈ 71.3 µM)
LD50 [5]: 23.2 µg/mL and 60 µg/mL
IC50 [6]: 3 µg/mL and 7.4 µM

CC(=O)OC[C@H]1O[C@@H](Oc2ccc3c(-c4ccccc4)cc(=O)oc3c2)[C@H](OC(C)=O)[C@@H](OC(C)=O)[C@@H]1OC(C)=O
IC50 [7]: 34.9 µM
IC50 [8]: 10 µM

C=C1CC(CC(C)(O)C(O)COc2ccc3ccc(=O)oc3c2O)OC1=O (stereo not drawn)
IC50 [9]: 12.1 µM

O=c1oc2ccccc2cc1-c1nnc2n1N=C(c1ccc(Cl)cc1)CS2
IC50 [10]: 2.86 µM

C[C@@H]1[C@H](O)[C@@H](C)/C=C/C=C/C=C/C=C/C=C/C=C/C=C/[C@H](O[C@@H]2O[C@H](C)[C@@H](O)[C@H](N)[C@@H]2O)C[C@@H]2O[C@](O)(C[C@@H](O)C[C@@H](O)[C@H](O)CC[C@@H](O)C[C@@H](O)CC(=O)O[C@H]1C)C[C@H](O)[C@H]2C(=O)O [AMPHOTERICIN B]
inhibition at 100 µM [11]: 79.8%

Cc1cc(=O)oc2cc(OCCCCOc3cc(Cl)ccc3Oc3ccc(Cl)cc3Cl)ccc12
IC50 [12]: 53.1 µM
inhibition at 20 µg/mL [13]: 57.1%

N#CCC1=NN=C(c2cc3ccccc3oc2=O)C(CC(=O)c2ccccc2)O1 (stereo not drawn)
inhibition at 50 µM [14]: 36%

COc1cc(OC)c2ccc(=O)oc2c1OC
IC50 [8]: 57.7 µM
inhibition at 100 µM [15]: 91%

COc1cc2ccc(=O)oc2cc1O [SCOPOLETIN]
IC50 [16]: > 50 µM
IC50 [17]: > 50 µM
IC50 [5]: > 50 µM

CCC(C)C(=O)c1c(O)c(CCC(C)C)c(O)c2c1OC(=O)CC2c1ccccc1 (stereo not drawn)
selectivity ratio [2]: 142
IC50 [3]: 0.6 µM
IC50 [6]: 0.9 µM

COC(=O)C1=C(N)Oc2cc(O)c3c(C)cc(=O)oc3c2C1c1ccc([N+](=O)[O-])cc1 (stereo not drawn)
IC50 [7]: 33.1 µM

COc1cc2ccc(=O)oc2cc1OC [SCOPARONE]
EC50 [18]: 21.4 mg/L (≈ 104 µM)
IC50 [16]: > 50 µM
IC50 [17]: > 50 µM
inhibition zone (IZ) [19]: 8 mm
IC50 [5]: > 50 µM
EC50 [20]: 14.4 mg/L (≈ 69.7 µM)
EC50 [21]: 27.5 mg/L (≈ 133 µM)
EC50 [22]: 9.11 mg/L (≈ 44.2 µM)

N#C/C(=N\Nc1ccccc1)C1=COC(c2cc3ccccc3oc2=O)=CC1C#N (stereo not drawn)
IC50 [23]: 14.2 µM
inhibition at 50 µM [14]: 92%

CCCCCCCCCCCCCCCCOP(=O)([O-])OCC[N+](C)(C)C [MILTEFOSINE]
IC50 [16]: 9.4 µM
IC50 [17]: 7.5 µM
IC50 [24]: 18.5 µM
IC50 [25]: 2.84 µM
IC50 [5]: 10.4 µM
selectivity ratio [26]: 7

O=c1oc2ccc(/N=C/c3ccco3)cc2cc1-c1ccc2c(c1)OCO2
IC50 [27]: 223 µM

CCC(C)C(=O)c1c(OC)c(CC=C(C)C)c(OC)c2c(-c3ccccc3)cc(=O)oc12 (stereo not drawn)
IC50 [6]: 15.1 µM

CC1(O)CC(CC(C)(O)C(O)COc2ccc3ccc(=O)oc3c2O)OC1=O (stereo not drawn)
IC50 [9]: > 100 µM

CC(C)=CCOc1ccc2c(-c3ccccc3)cc(=O)oc2c1
IC50 [7]: 58.1 µM
IC50 [8]: 21.4 µM

Cc1cccc(-n2c(-c3cc4ccccc4oc3=O)cs/c2=N/NC(=O)c2cc3ccccc3oc2=O)c1C
inhibition at 0.1 µM [28]: 53.9%
inhibition at 100 µM [11]: 70.4%

CNC(=O)Oc1ccc2c(c1)[C@]1(C)CCN(C)[C@@H]1N2C
inhibition zone (IZ) [19]: 9 mm

C=CC(C)(C)c1cc2cc3c(cc2oc1=O)OC(C)(C)[C@@H](O)C3
IC50 [16]: 35.8 µM
IC50 [17]: 27.5 µM
IC50 [5]: 32.1 µM
Activity [29]: 95.6%

CCCc1cc(=O)oc2c(C(=O)C(C)CC)c(O)c(CC=C(C)C)c(O)c12 (stereo not drawn)
IC50 [6]: 30.1 µM

N=C(N)c1ccc(OCCCCCOc2ccc(C(=N)N)cc2)cc1 [PENTAMIDINE]
EC50 [18]: 5.2 mg/L (≈ 15.3 µM)
EC50 [20]: 1.46 mg/L (≈ 4.29 µM)
EC50 [21]: 1.41 mg/L (≈ 4.14 µM)
EC50 [22]: 1.75 mg/L (≈ 5.14 µM)

C/C(=C\COc1cc(O)cc2oc(=O)ccc12)C/C=C/C(C)(C)OO
IC50 [9]: 26.2 µM

COc1cc2oc(=O)cc(C[Se]C#N)c2cc1OC
IC50 [24]: 16 µM
IC50 [25]: 0.82 µM
selectivity ratio [26]: 19.4

Cc1cccc(-n2c(-c3cc4ccccc4oc3=O)cs/c2=N/NC(=O)c2cc3ccccc3oc2=O)c1
inhibition at 0.1 µM [28]: 53.7%
inhibition at 100 µM [11]: 62.7%
